Source: ChEMBL document CHEMBL1201862, “PubChem BioAssay data set” (2004)
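Five compound concentrations were applied to cells in 96-well plates for 48 hours; endpoints were derived by simple linear interpolation of the resulting dose-response curve. The concentration for 50% growth inhibition is given as GI50.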 Calls of active or inactive are those of the source. No stated cut-off is given here; in the data, active = GI50 up to about 1.1 µM and inactive = higher.

How the values were obtained:
Test in all cases: DTP human tumour cell line panel, 48 h
NCI-H522 = test system: NCI-H522
U-251 = test system: U-251
SNB-19 = test system: SNB-19
SK-MEL-2 = test system: SK-MEL-2
MDA-N = test system: MDA-N
BT-549 = test system: BT-549
DLD-1 = test system: DLD-1
HL-60 = test system: HL-60
SF-539 = test system: SF-539
NCI-H460 = test system: NCI-H460
M14 = test system: M14
NCI-H23 = test system: NCI-H23
UACC-257 = test system: UACC-257
IGROV-1 = test system: IGROV-1
SK-OV-3 = test system: SK-OV-3
OVCAR-5 = test system: OVCAR-5
DMS-273 = test system: DMS-273
DMS-114 = test system: DMS-114
OVCAR-8 = test system: OVCAR-8
MDA-MB-435 = test system: MDA-MB-435
K562 = test system: K562
SF-268 = test system: SF-268
NCI/ADR-RES = test system: NCI/ADR-RES
M19-MEL = test system: M19-MEL
SK-MEL-28 = test system: SK-MEL-28
HCC 2998 = test system: HCC 2998
MDA-MB-231 = test system: MDA-MB-231
CAKI-1 = test system: CAKI-1
MCF7 = test system: MCF7
KM12 = test system: KM12
Malme-3M = test system: Malme-3M
SN12C = test system: SN12C
A549 = test system: A549
RXF 393 = test system: RXF 393
EKVX = test system: EKVX
DU-145 = test system: DU-145
Hs-578T = test system: Hs-578T
SK-MEL-5 = test system: SK-MEL-5
COLO 205 = test system: COLO 205
HCT-116 = test system: HCT-116
HOP-92 = test system: HOP-92
SR = test system: SR
CCRF-CEM = test system: CCRF-CEM
SF-295 = test system: SF-295
RXF 631 = test system: RXF 631
RPMI-8226 = test system: RPMI-8226
HOP-62 = test system: HOP-62
OVCAR-4 = test system: OVCAR-4
UO-31 = test system: UO-31
SW-620 = test system: SW-620
PC-3 = test system: PC-3
LOX IMVI = test system: LOX IMVI
KM-20L2 = test system: KM-20L2
786-0 = test system: 786-0
OVCAR-3 = test system: OVCAR-3
TK-10 = test system: TK-10
SNB-78 = test system: SNB-78
ACHN = test system: ACHN
NCI-H226 = test system: NCI-H226
SNB-75 = test system: SNB-75
UACC-62 = test system: UACC-62
XF498 = test system: XF498
LXFL 529 = test system: LXFL 529

SMILES: C=C1C(C)C2C(Cc3ccccc3)NC(=O)C23C(OC(C)=O)C=CC(C)(O)C(=O)C(C)C/C=C/C3C1O (stereo not drawn)
- GI50 (NCI-H522): 2.43 µM (inactive)
- GI50 (U-251): 0.0925 µM (active)
- GI50 (SNB-19): 0.217 µM (active)
- GI50 (SK-MEL-2): 6.22 µM (inactive)
- GI50 (MDA-N): 15.6 µM (inactive)
- GI50 (BT-549): 0.407 µM (active)
- GI50 (DLD-1): 0.78 µM (active)
- GI50 (HL-60): 4.57 µM (inactive)
- GI50 (SF-539): 0.117 µM (active)
- GI50 (NCI-H460): 0.258 µM (active)
- GI50 (M14): 7.24 µM (inactive)
- GI50 (NCI-H23): 12.9 µM (inactive)
- GI50 (UACC-257): 6.59 µM (inactive)
- GI50 (IGROV-1): 0.902 µM (active)
- GI50 (SK-OV-3): 0.752 µM (active)
- GI50 (OVCAR-5): 68.9 µM (inactive)
- GI50 (DMS-273): 1.96 µM (inactive)
- GI50 (DMS-114): 8.71 µM (inactive)
- GI50 (OVCAR-8): 79.8 µM (inactive)
- GI50 (MDA-MB-435): 51.1 µM (inactive)
- GI50 (K562): 33.1 µM (inactive)
- GI50 (SF-268): 1.45 µM (inactive)
- GI50 (NCI/ADR-RES): > 65.9 µM (inactive)
- GI50 (M19-MEL): 16.1 µM (inactive)
- GI50 (SK-MEL-28): 2.47 µM (inactive)
- GI50 (HCC 2998): 21.7 µM (inactive)
- GI50 (MDA-MB-231): 0.151 µM (active)
- GI50 (CAKI-1): 0.129 µM (active)
- GI50 (MCF7): 6.76 µM (inactive)
- GI50 (KM12): 90.8 µM (inactive)
- GI50 (Malme-3M): 30.5 µM (inactive)
- GI50 (SN12C): 39.3 µM (inactive)
- GI50 (A549): 0.764 µM (active)
- GI50 (RXF 393): 0.0865 µM (active)
- GI50 (EKVX): 1.8 µM (inactive)
- GI50 (DU-145): 28.2 µM (inactive)
- GI50 (Hs-578T): 0.0652 µM (active)
- GI50 (SK-MEL-5): 0.76 µM (active)
- GI50 (COLO 205): 0.535 µM (active)
- GI50 (HCT-116): 3.54 µM (inactive)
- GI50 (HOP-92): 0.569 µM (active)
- GI50 (SR): 3.3 µM (inactive)
- GI50 (CCRF-CEM): 4.24 µM (inactive)
- GI50 (SF-295): 0.366 µM (active)
- GI50 (RXF 631): 0.117 µM (active)
- GI50 (RPMI-8226): 5.98 µM (inactive)
- GI50 (HOP-62): 0.0678 µM (active)
- GI50 (OVCAR-4): 3.55 µM (inactive)
- GI50 (UO-31): 0.296 µM (active)
- GI50 (SW-620): 87.7 µM (inactive)
- GI50 (PC-3): 11.7 µM (inactive)
- GI50 (LOX IMVI): 0.101 µM (active)
- GI50 (KM-20L2): 0.158 µM (active)
- GI50 (786-0): 0.311 µM (active)
- GI50 (OVCAR-3): 22.4 µM (inactive)
- GI50 (TK-10): 0.505 µM (active)
- GI50 (SNB-78): 0.116 µM (active)
- GI50 (ACHN): 0.889 µM (active)
- GI50 (NCI-H226): 3.85 µM (inactive)
- GI50 (SNB-75): 0.0333 µM (active)
- GI50 (UACC-62): 3.36 µM (inactive)
- GI50 (XF498): 2.01 µM (inactive)
- GI50 (LXFL 529): 3.14 µM (inactive)
